{"source": "patent US20230047208A1", "about": "“RNA Splicing Modulation” (The General Hospital Corporation, priority 2020, published 2023)", "tested_on": "wildtype (WT) human fibroblast cell lines", "assay": "Transcriptome-wide splicing by RNA sequencing (RNASeq), exon triplet PSI change;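 as to Effect: six WT fibroblast lines treated seven days versus DMSO vehicle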;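 as to T-PSI: T-PSI is average treated PSI after seven days of treatment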", "assay_type": "cell-based", "parameters": "key to Effect: Exclusion; Inclusion; Unchanged", "from_the_text": "FIG. 2A provides a representation of an exon triplet. Exon U is upstream of Exon X, which is upstream of Exon D. R1, R2 and R3 represent RNA sequencing (RNASeq) reads spanning the regions between two adjacent exons. UI1, I1X, XI2 and I2D are four regions flanking the four splice sites of the exon-triplet. Each flanking region consists of 25 exonic base pairs and 75 intronic base pairs.\nFIG. 2B provides a volcano plot showing the ψ (PSI: Percent Spliced-In) changes in splicing after treatment with Compound (I). Each dot represents one of the 161,097 expressed exon triplets in human fibroblasts. The x axis represents the ψ changes after treatment and the y axis represents the False Discovery Rate (FDR) (log 10 transformed). […] The horizontal dashed line indicates an FDR of 0.1. The dots on the right side of the right vertical dashed line and above the horizontal dashed line represent the exon-triplets with an increase for Exon X inclusion (Δψ≥0.1 and FDR<0.1) while the dots on left side of the left vertical dashed line and above the horizontal dashed line represent an increase for Exon X exclusion (Δψ≤−0.1 and FDR<0.1). Black dots in-between the two vertical dashed lines represent exon-triplets unchanged from the treatment.\nIn some aspects, analysis is performed on data derived from the assay to measure the magnitude of splicing to determine the amount of exons spliced into an mRNA transcript that is produced in the presence of Compound (I) relative to the amount in the absence of Compound (I) or presence of a negative control. In a preferred aspect, the method utilized is calculation of change in Percent Spliced In (ΔPSI). […] The ΔPSI value is derived from the formula: […]\nThe values for “a” and “b” represent the number of reads supporting the probability for potential inclusion or exclusion of an exon in an RNA transcript. The “a” value is derived from the number of reads within an exon triplet covering, in 5′ to 3′ order: the last few bases (>1 nucleotide) of an upstream exon operably linked to the first few bases (>1 nucleotide) of a middle exon. The “b” value is derived from the number of reads within an exon triplet covering, in 5′ to 3′ order: the last few bases (>1 nucleotide) of the middle exon operably linked to the first few bases (>1 nucleotide) of a downstream exon. The number of reads will indicate whether the splice junction of a middle exon has been identified as potentially having a CNN Motif(s) by the CNN Model described herein, wherein the inclusion or exclusion of the middle exon may be modulated in the presence of Compound (I) to produce one or more mature RNA isoforms from the gene transcript. The value for “c” represents the number of reads supporting the exclusion of the middle exon.\nThe effect on splicing modulation and corresponding splice differences toward exon inclusion or exclusion was determined by counting the RNASeq reads covering two splice junctions of exon triplets (three consecutive exons: Exon U, Exon X, Exon D) and the corresponding intervening introns, then comparing the change in Percent Spliced In (ΔPSI or Δψ) of the middle exon (Exon X) after treatment (as shown in FIG. 2A)^52,53. 934 exon triplets were identified showing differential middle exon inclusion or exclusion in response to Compound (I) treatment. Of these, 254 were exon inclusion events (Δψ≥0.1 and FDR<0.1) and 680 were exon exclusion events (Δψ≤−0.1 and FDR<0.1) (as shown in FIG. 2B). […] The splicing results were evaluated by RT-PCR in independent replicate experiments, confirming all the calculated Δψ values. […]", "key": {"[1]": {"settings": "PCNXL2 Exon 233160892-233161145"}, "[2]": {"settings": "PCNXL2 Exon 233353645-233353677"}, "[3]": {"settings": "PDE4DIP Exon 144859759-144859998"}}, "data": [{"smiles": "Clc1nc(NCc2ccncc2)c2cc[nH]c2n1", "note": "[Compound (I), 2-chloro-N-(pyridin-4-ylmethyl)-7H-pyrrolo[2,3-d]pyrimidin-4-amine]", "values": [{"measurement": "ΔPSI", "setting": "PARP6 Exon 72543186-72543295", "result": 0.148}, {"measurement": "Effect", "setting": "PARP6 Exon 72543186-72543298", "result": "Inc"}, {"measurement": "T-PSI", "setting": "PARP6 Exon 72543186-72543298", "result": 0.870}, {"measurement": "ΔPSI", "setting": "PARP6 Exon 72543186-72543298", "result": 0.164}, {"measurement": "Effect", "setting": "PARP11 Exon 3938076-3938196", "result": "Exc"}, {"measurement": "T-PSI", "setting": "PARP11 Exon 3938076-3938196", "result": 0.250}, {"measurement": "ΔPSI", "setting": "PARP11 Exon 3938076-3938196", "result": "−0.245"}, {"measurement": "Effect", "setting": "PATL1 Exon 59423429-59423518", "result": "Exc"}, {"measurement": "T-PSI", "setting": "PATL1 Exon 59423429-59423518", "result": 0.710}, {"measurement": "ΔPSI", "setting": "PATL1 Exon 59423429-59423518", "result": "−0.168"}, {"measurement": "Effect", "setting": "PCBP2 Exon 53861589-53861627", "result": "Exc"}, {"measurement": "T-PSI", "setting": "PCBP2 Exon 53861589-53861627", "result": 0.431}, {"measurement": "ΔPSI", "setting": "PCBP2 Exon 53861589-53861627", "result": "−0.218"}, {"measurement": "Effect", "setting": "PCID2 Exon 113845186-113845289", "result": "Exc"}, {"measurement": "T-PSI", "setting": "PCID2 Exon 113845186-113845289", "result": 0.757}, {"measurement": "ΔPSI", "setting": "PCID2 Exon 113845186-113845289", "result": "−0.217"}, {"measurement": "Effect", "setting": "PCM1 Exon 17838100-17838264", "result": "Exc"}, {"measurement": "T-PSI", "setting": "PCM1 Exon 17838100-17838264", "result": 0.444}, {"measurement": "ΔPSI", "setting": "PCM1 Exon 17838100-17838264", "result": "−0.135"}, {"measurement": "Effect", "setting": "[1]", "result": "Unc"}, {"measurement": "T-PSI", "setting": "[1]", "result": 0.891}, {"measurement": "ΔPSI", "setting": "[1]", "result": 0.009}, {"measurement": "Effect", "setting": "[2]", "result": "Exc"}, {"measurement": "T-PSI", "setting": "[2]", "result": 0.899}, {"measurement": "ΔPSI", "setting": "[2]", "result": "−0.101"}, {"measurement": "Effect", "setting": "PCNXL4 Exon 60574304-60575045", "result": "Exc"}, {"measurement": "T-PSI", "setting": "PCNXL4 Exon 60574304-60575045", "result": 0.498}, {"measurement": "ΔPSI", "setting": "PCNXL4 Exon 60574304-60575045", "result": "−0.151"}, {"measurement": "Effect", "setting": "PCYT2 Exon 79863258-79863323", "result": "Exc"}, {"measurement": "T-PSI", "setting": "PCYT2 Exon 79863258-79863323", "result": 0.804}, {"measurement": "ΔPSI", "setting": "PCYT2 Exon 79863258-79863323", "result": "−0.150"}, {"measurement": "Effect", "setting": "[3]", "result": "Inc"}, {"measurement": "T-PSI", "setting": "[3]", "result": 0.821}, {"measurement": "ΔPSI", "setting": "[3]", "result": 0.140}, {"measurement": "Effect", "setting": "PDGFC Exon 157782581-157782641", "result": "Unc"}, {"measurement": "T-PSI", "setting": "PDGFC Exon 157782581-157782641", "result": 0.141}, {"measurement": "ΔPSI", "setting": "PDGFC Exon 157782581-157782641", "result": 0.006}, {"measurement": "Effect", "setting": "PDLIM2 Exon 22449064-22449181", "result": "Exc"}, {"measurement": "T-PSI", "setting": "PDLIM2 Exon 22449064-22449181", "result": 0.542}, {"measurement": "ΔPSI", "setting": "PDLIM2 Exon 22449064-22449181", "result": "−0.322"}, {"measurement": "Effect", "setting": "PDP1 Exon 94930139-94930173", "result": "Unc"}, {"measurement": "T-PSI", "setting": "PDP1 Exon 94930139-94930173", "result": 0.184}, {"measurement": "ΔPSI", "setting": "PDP1 Exon 94930139-94930173", "result": "−0.002"}, {"measurement": "Effect", "setting": "PDPR Exon 70148773-70148833", "result": "Unc"}, {"measurement": "T-PSI", "setting": "PDPR Exon 70148773-70148833", "result": 0.268}, {"measurement": "ΔPSI", "setting": "PDPR Exon 70148773-70148833", "result": "−0.005"}, {"measurement": "Effect", "setting": "PDXDC2P Exon 70010714-70011906", "result": "Unc"}, {"measurement": "T-PSI", "setting": "PDXDC2P Exon 70010714-70011906", "result": 0.246}, {"measurement": "ΔPSI", "setting": "PDXDC2P Exon 70010714-70011906", "result": "−0.004"}, {"measurement": "Effect", "setting": "PDZD11 Exon 69509372-69509443", "result": "Inc"}, {"measurement": "T-PSI", "setting": "PDZD11 Exon 69509372-69509443", "result": 0.417}, {"measurement": "ΔPSI", "setting": "PDZD11 Exon 69509372-69509443", "result": 0.257}, {"measurement": "Effect", "setting": "PEAK1 Exon 77576225-77576372", "result": "Exc"}, {"measurement": "T-PSI", "setting": "PEAK1 Exon 77576225-77576372", "result": 0.201}, {"measurement": "ΔPSI", "setting": "PEAK1 Exon 77576225-77576372", "result": "−0.170"}, {"measurement": "Effect", "setting": "PEAK1 Exon 77657505-77657567", "result": "Unc"}, {"measurement": "T-PSI", "setting": "PEAK1 Exon 77657505-77657567", "result": 0.806}, {"measurement": "ΔPSI", "setting": "PEAK1 Exon 77657505-77657567", "result": "−0.001"}, {"measurement": "Effect", "setting": "PEX1 Exon 92138643-92138725", "result": "Exc"}, {"measurement": "T-PSI", "setting": "PEX1 Exon 92138643-92138725", "result": 0.444}, {"measurement": "ΔPSI", "setting": "PEX1 Exon 92138643-92138725", "result": "−0.341"}, {"measurement": "Effect", "setting": "PEX5 Exon 7354837-7354947", "result": "Exc"}, {"measurement": "T-PSI", "setting": "PEX5 Exon 7354837-7354947", "result": 0.279}, {"measurement": "ΔPSI", "setting": "PEX5 Exon 7354837-7354947", "result": "−0.163"}, {"measurement": "Effect", "setting": "PEX11A Exon 90229662-90229777", "result": "Exc"}, {"measurement": "T-PSI", "setting": "PEX11A Exon 90229662-90229777", "result": 0.316}, {"measurement": "ΔPSI", "setting": "PEX11A Exon 90229662-90229777", "result": "−0.403"}, {"measurement": "T-PSI", "setting": "PFDN1 Exon 139680001-139680167", "result": 0.458}, {"measurement": "ΔPSI", "setting": "PFDN1 Exon 139680001-139680167", "result": "−0.326"}, {"measurement": "T-PSI", "setting": "PFDN5 Exon 53690214-53690335", "result": 0.175}, {"measurement": "ΔPSI", "setting": "PFDN5 Exon 53690214-53690335", "result": 0.008}, {"measurement": "T-PSI", "setting": "PFDN5 Exon 53690238-53690335", "result": 0.180}, {"measurement": "ΔPSI", "setting": "PFDN5 Exon 53690238-53690335", "result": 0.007}, {"measurement": "exon triplets showing differential middle exon inclusion or exclusion in response to treatment", "setting": "RNASeq, human fibroblasts, out of 161,097 expressed triplets", "result": 934}, {"measurement": "unchanged-response set, exon triplets", "setting": "Δψ≤0.01", "result": 382}, {"measurement": "exon exclusion events", "setting": "Δψ≤−0.1 and FDR<0.1", "result": 680}, {"measurement": "exon inclusion events", "setting": "Δψ≥0.1 and FDR<0.1", "result": 254}]}]}
